Experimental findings from ChEMBL document CHEMBL1148856, “Thiazolone-acylsulfonamides as novel HCV NS5B polymerase allosteric inhibitors: convergence of structure-based drug design and X-ray crystallographic study” (Bioorg Med Chem Lett, 2007) are described below.

The experiment is described as follows: Inhibition of HCV BK NS5B polymerase. More on the design: species or system Hepacivirus hominis.
The compound `CCc1ccc(/C=C2\SC(N[C@H](CS(=O)(=O)NC(=O)c3ccccc3)c3ccccc3)=NC2=O)o1` (stereo in doubt) yielded a 50% inhibitory concentration (IC50) of 16 µM.

Compound `CCc1ccc(/C=C2\SC(N[C@H](C(=O)NS(=O)(=O)c3ccc(C)cc3)c3ccc(F)cc3)=NC2=O)o1` (stereo in doubt) showed an IC50 of 9.3 µM.

With `CCc1ccc(/C=C2\SC(N[C@H](C(=O)NS(=O)(=O)c3cccc([N+](=O)[O-])c3)c3ccc(F)cc3)=NC2=O)o1` (stereo in doubt), it took 15 µM to reach half-maximal inhibition (IC50). The result for `CCc1ccc(/C=C2\SC(N[C@H](C(=O)NS(=O)(=O)c3cccc(C(=O)OC)c3)c3ccc(F)cc3)=NC2=O)o1` (stereo in doubt) reads 14 µM. Under `CCc1ccc(/C=C2\SC(N[C@H](C(=O)NS(=O)(=O)c3ccc([N+](=O)[O-])cc3)c3ccc(Cl)cc3Cl)=NC2=O)o1` (stereo in doubt) stands 6.6 µM; under `CCc1ccc(/C=C2\SC(N[C@H](C(=O)NS(=O)(=O)c3cccc(C(=O)O)c3)c3ccc(F)cc3)=NC2=O)o1` (stereo in doubt), 12 µM.

As a reminder, the IC50 is the concentration that inhibits the measured activity by half.
